Legend:
NZB/W F1 female mice [1] = assay: Survival rate in SLE model mouse; format: in vivo; conditions: for survival rate: 42 weeks after birth
Description: (§1) 80 NZB/W F1 female mice (four weeks old) were purchased from Jackson Laboratory and maintained in an SPF breeding room with five mice per cage. Their weight and urine protein were measured at 24 weeks after birth (right before administration), and then all the animals except those having too much urine protein were divided into groups as shown in a table 2 below such that the urine protein and weight might be evenly distributed among the groups.
(§2) Then, the mice were administered as described in the table 2 once a day for about 19 weeks from 24 weeks after birth to 42 weeks after birth.
An NZB/W F1 female mouse is used as a human SLE disease model. If not treated at all, it is known that this model falls dead all after 12 months or so (about 52 weeks old) due to immune-complex glomerulonephritis.

NZB/W F1 female mice [2] = assay: Proteinuria and UP/C in SLE model mouse; format: in vivo; conditions: for incidence rate of severe proteinuria of 300 mg/dl or more: 42 weeks old
Description: as §1, §2
(§3) The fresh urine of mice was collected before and after administration every two weeks, while blood collection was performed before and after administration every four weeks. The serum was prepared by centrifugation of the collected blood and then kept at −70° C.
A urine creatinine concentration was obtained by diluting the urine 100-fold, then measuring the concentration thereof by means of a serum chemistry analyzer (Dri-CHEM 3000 colorimetric analyzer, Fujifilm), and then calibrating the measured value using a dilution factor.

NZB/W F1 female mice [3] = assay: Serum anti-dsDNA antibodies (ELISA) in SLE model mouse; format: in vivo
Description: as §1, §2, §3
To identify if the pharmaceutical composition according to the present invention may reduce an increased concentration of anti-dsDNA antibodies shown in the SLE model animal, a concentration of anti-dsDNA antibodies in mouse serum was measured by means of a mouse anti-dsDNA ELISA (enzyme-linked immunosorbent assay) kit (Shibayagi).

NZB/W F1 female mice [4] = assay: BUN and serum creatinine in SLE model mouse; format: in vivo
Description: as §1, §2, §3
To evaluate a kidney function of the SLE model mouse, BUN and creatine concentrations were measured from a mouse serum collected every month (at 24, 28, 32, 36 and 40 weeks old and during autopsy) by means of a Dri-CHEM 3000 colorimetric analyzer (Fuji film).

NZB/W F1 female mice [5] = assay: Serum CXCL10 and CCL2 in SLE disease mouse; format: in vivo; conditions: 36 weeks old
Description: as §1, §2
Meanwhile, when a level of CXCL10 (IFN-inducible protein 10, IP-10) and CCL2 (MCP-1) in serum was measured at 36 weeks old, it was identified that the level of CXCL10 in serum was decreased in all the experimental groups, and the level of CCL2 in serum was decreased in the 50 mg/kg dosed group (FIG. 14).

NZB/W F1 female mice [6] = assay: T cell populations in spleen (FACS) in SLE disease mouse; format: in vivo
Description: as §1, §2
To evaluate a pattern of immune T cell populations in spleen in the SLE disease mouse, a ratio of CD3, CD4, CD8a and CTLA4 expressions as well as a Treg proportion/Th1, Th2, Th17 and Treg master regulator (T-bet, GATA-3, ROR-γt, Foxp3) expression patterns were measured.
To that end, splenocytes were first obtained from the spleen obtained during the mouse autopsy by means of a 70 μm cell strainer (BD), and then red blood cells were hemolyzed by means of an EL buffer and washed with FACS buffer solution (5% BSA/PBS). After that, staining was performed at a concentration recommended by a manufacturer by means of PerCP-cy5.5-conjugated anti-mouse CD3 (ebioscience, Sandiego, Calif., USA), PE-Cyanine7-conjugated anti-mouse CD8a (ebioscience), FITC-conjugated anti-CD4 (BD), APC-conjugated anti-mouse CD25 (BD), PE-conjugated anti-mouse FoxP3 (BD), PE-conjugated anti-mouse RORγt (ebioscience), PE-conjugated anti-mouse T-bet (ebioscience), PE-conjugated anti-mouse GATA-3 (ebioscience), and PE-conjugated anti-mouse CTLA4 (ebioscience) antibodies.
The splenocytes and cell surface marker antibodies were immediately reacted. Before reacting FoxP3, RORγt, T-bet and GATA3 antibodies, the splenocytes were fixed by means of a FoxP3/Transcription Factor staining buffer set, then permeabilized, and then reacted with the antibodies. A ratio of CD4:CD8 in CD3 cells as well as a ratio of CD4+CD8-cells, CD4−CD8+ cells, CD4+CD8+ cells and double negative T cells were respectively measured and compared between the groups. To identify a ratio of FoxP3, RORγt, T-bet and GATA3, which were master regulators of Treg, Th17, Th1 and Th2, a ratio of CD4+CD25+FoxP3+ cells, CD4+CD25+RORγt+ cells, CD4+CD25+ T-bet+ cells and CD4+CD25+GATA3+ cells was respectively measured.

NZB/W F1 female mice [7] = assay: Ratio of PreB and ProB cells in marrow (FACS); format: in vivo, mouse; conditions: experimental groups vs control group
Description: as §1, §2
A ratio of pro B (B220+, CD43+) and pre B (B220+, CD43−) cells in mouse marrow cells was measured by means of FACS. To that end, the marrow cells were obtained by flushing a femur with PBS comprising 5% BSA. After that, red blood cells were hemolyzed by means of EL buffer, then washed with FACS buffer (5% BSA/PBS), and then stained with FITC-conjugated anti-mouse CD43 antibodies (ebioscience) and PE-conjugated anti-mouse […] antibodies (ebioscience), such that a ratio of Pre B (B220+CD43-) and Pro B (B220+CD43+) cells was measured.

NZB/W F1 female mice [8] = assay: Immunoglobulin isotypes in serum (Luminex); format: in vivo, mouse; conditions: 50 mg/kg dosed group vs negative control
Description: as §1, §2
A concentration of immunoglobulin isotypes (IgG1, IgG2a, IgG2b, IgG3 and IgM) in the serum obtained during the mouse autopsy was measured by means of Luminex assay kit for mouse isotype (R&D systems, Minneapolis, Minn.).

NZB/W F1 female mice [9] = assay: T cell populations in spleen (FACS) in SLE disease mouse; format: in vivo; remark: listed apart in the source
[10] = 50 mg/kg dosed group vs negative control
[11] = experimental groups vs control groups
[12] = experimental groups, 40 weeks old
[13] = 50 mg/kg dosed group vs control group
[14] = spleen, CD3+ gated, experimental groups

SMILES: O=C(NO)c1ccc(CN(C(=O)N2CCOCC2)c2cccc(C(F)(F)F)c2)cc1 [Compound 374, N-(4-(hydroxycarbamoyl)benzyl)-N-(3-(trifluoromethyl)phenyl)morpholine-4-carboxamide]
- survival rate (NZB/W F1 female mice [1]; 10 mg/kg dosed group): about 73.3%
- survival rate (NZB/W F1 female mice [1]; 30 mg/kg dosed group): about 93.3%
- survival rate (NZB/W F1 female mice [1]; 50 mg/kg dosed group): about 93.3%
- survival rate pattern (NZB/W F1 female mice [1]; experimental groups (10, 30, 50 mg/kg), vs negative control): better recovery pattern
- incidence rate of severe proteinuria of 300 mg/dl or more (NZB/W F1 female mice [2]; 10 mg/kg dosed group): 60%
- incidence rate of severe proteinuria of 300 mg/dl or more (NZB/W F1 female mice [2]; 30 mg/kg dosed group): 6.7%
- incidence rate of severe proteinuria of 300 mg/dl or more (NZB/W F1 female mice [2]; 50 mg/kg dosed group): 0%
- UP/C (ratio of urine protein:creatine) (NZB/W F1 female mice [2]; 36-week old, all the experimental groups): remarkably decreased
- UP/C value (NZB/W F1 female mice [2]; 42-week old, all experimental groups except the 10 mg/kg dosed group, vs negative control): decreased more
- incidence rate of severe proteinuria (NZB/W F1 female mice [2]; experimental groups, 24 to 42 week after birth): remarkably improved
- decrease of serum concentration of anti-dsDNA antibodies (NZB/W F1 female mice [3]; [10]): two-fold
- serum concentration of anti-dsDNA antibodies (NZB/W F1 female mice [3]; after 28 week after birth, all the experimental groups, vs negative control): tended to decrease more
- BUN concentration (NZB/W F1 female mice [4]; [11]): decreased
- serum creatine concentration (NZB/W F1 female mice [4]; [11]): decreased
- BUN concentration (NZB/W F1 female mice [4]; [12]): remarkably excellent effect of reducing
- serum creatine concentration (NZB/W F1 female mice [4]; [12]): remarkably excellent effect of reducing
- level of CCL2 in serum (NZB/W F1 female mice [5]; 50 mg/kg dosed group): decreased
- level of CXCL10 in serum (NZB/W F1 female mice [5]; all the experimental groups): decreased
- ratio of CD4+T-bet+/CD4+GATA-3+ (NZB/W F1 female mice [6]; 30 mg/kg and 50 mg/kg dosed groups vs control group): more significantly decreased
- T-bet expression in CD4+ cells (NZB/W F1 female mice [6]; [13]): significantly lower
- ratio of CD4+CD25+ cells/CD4+ cells (NZB/W F1 female mice [6]; [13]): significantly lower
- ratio of CD25+ cells (NZB/W F1 female mice [6]; [13]): significantly lower
- ratio of CD4−CD8+ T cells (NZB/W F1 female mice [6]; [14]): increased
- ratio of CD4−CD8− T cells (NZB/W F1 female mice [6]; [14]): decreased
- ratio of CD4+CD25+Foxp3+, CD4+CD25+RORγt+, CD4+CD25+ T-bet+ and CD4+CD25+GATA-3+ cells (NZB/W F1 female mice [6]; spleen, between the groups): a significance between the groups was not observed yet
- ratio of CD4+CD8−: CD4−CD8+ T cells (NZB/W F1 female mice [6]; spleen, experimental groups): tended to decrease as an administered dose was increased
- ratio of pre B and pro B cells in marrow (NZB/W F1 female mice [7]): significant change in the ratio of pre B and pro B cells was not observed
- concentration of IgG1 in serum (NZB/W F1 female mice [8]): decreased
- concentration of IgG2a in serum (NZB/W F1 female mice [8]): decreased
- concentration of IgG2b in serum (NZB/W F1 female mice [8]): decreased
- concentration of IgG3 in serum (NZB/W F1 female mice [8]): decreased
- concentration of IgM in serum (NZB/W F1 female mice [8]): remarkably decreased
- decrease of ratio of CD138+ cells (NZB/W F1 female mice [9]; 10 mg/kg dosed group, vs negative control): 21.2%
- decrease of ratio of CD138+ cells (NZB/W F1 female mice [9]; 30 mg/kg dosed group, vs negative control): 25.2%
- decrease of ratio of CD138+ cells (NZB/W F1 female mice [9]; [10]): 31.6%
